ChEMBL document CHEMBL5375952, “Discovery of Novel 8-Hydroxyquinoline Derivatives with Potent In Vitro and In Vivo Antifungal Activity” (J Med Chem, 2023)
Active and inactive are the calls of the source. The rule behind the calls is not given here.

Columns and labels:
Candida albicans [1] = assay: Synergistic antifungal activity against FLC-resistant Candida albicans 512681 assessed as fractional inhibitory concentration index incubated for 48 hrs in presence of FLC by broth microdilution method; assay type: functional
Candida albicans [2] = assay: Synergistic antifungal activity against FLC-resistant Candida albicans 646 assessed as fungal growth inhibition incubated for 48 hrs in presence of FLC by broth microdilution method; assay type: functional
Candida albicans [3] = assay: Antifungal activity against Candida albicans 0304103 assessed as fungal growth inhibition at 4 to 8 ug/ml incubated for 48 hrs by time-kill assay; assay type: functional, organism-based; conditions: dose 4-8 µg/ml
Candida albicans [4] = assay: Synergistic antifungal activity against FLC-resistant Candida albicans 540 assessed as fractional inhibitory concentration index incubated for 48 hrs in presence of FLC by broth microdilution method; assay type: functional
Candida albicans [5] = assay: Synergistic antifungal activity against FLC-resistant Candida albicans 710513 assessed as fractional inhibitory concentration index incubated for 48 hrs in presence of FLC by broth microdilution method; assay type: functional
[6] = Oral bioavailability in Sprague-Dawley rat at 5 mg/kg by LC-MS/MS analysis; assay type: ADME, organism-based; conditions: in vivo
Candida albicans [7] = assay: Inhibition of biofilm formation of Candida albicans SC5314 at 8 ug/ml incubated for 24 hrs by XTT assay relative to control; assay type: functional
Candida albicans [8] = assay: Synergistic antifungal activity against FLC-resistant Candida albicans 5740 assessed as fungal growth inhibition incubated for 48 hrs in presence of FLC by broth microdilution method; assay type: functional
Candida albicans [9] = assay: Synergistic antifungal activity against FLC-resistant Candida albicans 646 assessed as MIC of FLC incubated for 48 hrs by broth microdilution method; assay type: functional
Candida albicans [10] = assay: Synergistic antifungal activity against FLC-resistant Candida albicans 17 assessed as MIC of FLC incubated for 48 hrs by broth microdilution method; assay type: functional
Candida albicans [11] = assay: Synergistic antifungal activity against FLC-resistant Candida albicans 304103 assessed as fungal growth inhibition incubated for 48 hrs in presence of FLC by broth microdilution method; assay type: functional
Candida albicans [12] = assay: Synergistic antifungal activity against FLC-resistant Candida albicans 8 assessed as MIC of FLC incubated for 48 hrs by broth microdilution method; assay type: functional
Candida albicans [13] = assay: Synergistic antifungal activity against FLC-resistant Candida albicans 512644 assessed as fungal growth inhibition incubated for 48 hrs in presence of FLC by broth microdilution method; assay type: functional
Candida albicans [14] = assay: Synergistic antifungal activity against FLC-resistant Candida albicans 1221 assessed as fungal growth inhibition incubated for 48 hrs in presence of FLC by broth microdilution method; assay type: functional
Candida albicans [15] = assay: Synergistic antifungal activity against FLC-resistant Candida albicans 64548 assessed as fungal growth inhibition incubated for 48 hrs in presence of FLC by broth microdilution method; assay type: functional
Candida albicans [16] = assay: Synergistic antifungal activity against FLC-resistant Candida albicans 605141 assessed as fractional inhibitory concentration index incubated for 48 hrs in presence of FLC by broth microdilution method; assay type: functional
Candida albicans [17] = assay: Synergistic antifungal activity against FLC-resistant Candida albicans 710554 assessed as fungal growth inhibition incubated for 48 hrs in presence of FLC by broth microdilution method; assay type: functional
Candida albicans [18] = assay: Synergistic antifungal activity against FLC-resistant Candida albicans 710452 assessed as fractional inhibitory concentration index incubated for 48 hrs in presence of FLC by broth microdilution method; assay type: functional
Candida albicans [19] = assay: Synergistic antifungal activity against FLC-resistant Candida albicans 241 assessed as MIC of FLC incubated for 48 hrs by broth microdilution method; assay type: functional
[20] = target: Voltage-gated inwardly rectifying potassium channel KCNH2 (Homo sapiens, UniProt Q12809); assay: Inhibition of hERG measured for 120 secs by electrophysiological method; assay type: toxicity; conditions: 2 min, time 120 sec
[21] = Toxicity in C57BL/6 mouse infected with Candida albicans SC5314 assessed as animal survival at 2 mg/kg, ip measured after 20 days in presence of FLC relative to control; assay type: organism-based; conditions: in vivo, 480 h, time 20 day
Candida albicans [22] = assay: Synergistic inhibition of hypha formation in Candida albicans SC5314 at 4 to 16 ug/ml incubated for 3 hrs in presence of FLC by inverted phase contrast microscopy; assay type: functional, organism-based; conditions: dose 4-16 µg/ml
Candida albicans [23] = assay: Synergistic antifungal activity against FLC-resistant Candida albicans 512644 assessed as fractional inhibitory concentration index incubated for 48 hrs in presence of FLC by broth microdilution method; assay type: functional
Candida albicans [24] = assay: Synergistic antifungal activity against FLC-resistant Candida albicans 512681 assessed as fungal growth inhibition incubated for 48 hrs in presence of FLC by broth microdilution method; assay type: functional
Candida albicans [25] = assay: Synergistic antifungal activity against FLC-resistant Candida albicans 953 assessed as fungal growth inhibition incubated for 48 hrs in presence of FLC by broth microdilution method; assay type: functional
Candida albicans [26] = assay: Synergistic antifungal activity against FLC-resistant Candida albicans 512681 assessed as MIC of FLC incubated for 48 hrs by broth microdilution method; assay type: functional
Candida albicans [27] = assay: Synergistic antifungal activity against FLC-resistant Candida albicans 304103 assessed as MIC of FLC incubated for 48 hrs by broth microdilution method; assay type: functional
Candida albicans [28] = assay: Synergistic antifungal activity against FLC-resistant Candida albicans 64548 assessed as MIC of FLC incubated for 48 hrs by broth microdilution method; assay type: functional
Candida albicans [29] = assay: Synergistic antifungal activity against FLC-resistant Candida albicans 710506 assessed as fractional inhibitory concentration index incubated for 48 hrs in presence of FLC by broth microdilution method; assay type: functional
Candida albicans [30] = assay: Synergistic antifungal activity against FLC-resistant Candida albicans 710506 assessed as MIC of FLC incubated for 48 hrs by broth microdilution method; assay type: functional
Candida albicans [31] = assay: Synergistic antifungal activity against FLC-resistant Candida albicans 379 assessed as fungal growth inhibition incubated for 48 hrs in presence of FLC by broth microdilution method; assay type: functional
Candida albicans [32] = assay: Synergistic antifungal activity against FLC-resistant Candida albicans 953 assessed as fractional inhibitory concentration index incubated for 48 hrs in presence of FLC by broth microdilution method; assay type: functional
[33] = AUC (0 to infinity) in Sprague-Dawley rat at 2 mg/kg, iv by LC-MS/MS analysis; assay type: ADME, organism-based; parameters: dose 2 mg/kg, route iv; conditions: in vivo
Candida albicans [34] = assay: Synergistic antifungal activity against FLC-resistant Candida albicans 710419 assessed as fungal growth inhibition incubated for 48 hrs in presence of FLC by broth microdilution method; assay type: functional
[35] = Tmax in Sprague-Dawley rat at 5 mg/kg, po by LC-MS/MS analysis; assay type: ADME, organism-based; conditions: in vivo
Candida albicans [36] = assay: Antifungal activity against Candida albicans SC5314 assessed as fungal growth inhibition incubated for 48 hrs in presence of Cu2+ by broth microdilution method (reference value: 0.0625 ug/ml); assay type: functional
[37] = AUC (0 to infinity) in Sprague-Dawley rat at 5 mg/kg, po by LC-MS/MS analysis; assay type: ADME, organism-based; parameters: dose 5 mg/kg, route po; conditions: in vivo
Candida albicans [38] = assay: Synergistic antifungal activity against FLC-resistant Candida albicans 819 assessed as fractional inhibitory concentration index incubated for 48 hrs in presence of FLC by broth microdilution method; assay type: functional
Candida albicans [39] = assay: Antifungal activity against Candida albicans SC5314 infected in C57BL/6 mouse assessed as mean fungal burden at 0.25 mg/kg, ip measured after 46 hrs by plate count method (reference value: 6.902 log10CFU/ml); assay type: functional
Candida albicans [40] = assay: Inhibition of biofilm formation of Candida albicans SC5314 incubated for 24 hrs by XTT assay; assay type: functional, organism-based; conditions: dose <= 16.0 µg/ml

Voltage-gated inwardly rectifying potassium channel KCNH2, sequence (Q12809 whole entry): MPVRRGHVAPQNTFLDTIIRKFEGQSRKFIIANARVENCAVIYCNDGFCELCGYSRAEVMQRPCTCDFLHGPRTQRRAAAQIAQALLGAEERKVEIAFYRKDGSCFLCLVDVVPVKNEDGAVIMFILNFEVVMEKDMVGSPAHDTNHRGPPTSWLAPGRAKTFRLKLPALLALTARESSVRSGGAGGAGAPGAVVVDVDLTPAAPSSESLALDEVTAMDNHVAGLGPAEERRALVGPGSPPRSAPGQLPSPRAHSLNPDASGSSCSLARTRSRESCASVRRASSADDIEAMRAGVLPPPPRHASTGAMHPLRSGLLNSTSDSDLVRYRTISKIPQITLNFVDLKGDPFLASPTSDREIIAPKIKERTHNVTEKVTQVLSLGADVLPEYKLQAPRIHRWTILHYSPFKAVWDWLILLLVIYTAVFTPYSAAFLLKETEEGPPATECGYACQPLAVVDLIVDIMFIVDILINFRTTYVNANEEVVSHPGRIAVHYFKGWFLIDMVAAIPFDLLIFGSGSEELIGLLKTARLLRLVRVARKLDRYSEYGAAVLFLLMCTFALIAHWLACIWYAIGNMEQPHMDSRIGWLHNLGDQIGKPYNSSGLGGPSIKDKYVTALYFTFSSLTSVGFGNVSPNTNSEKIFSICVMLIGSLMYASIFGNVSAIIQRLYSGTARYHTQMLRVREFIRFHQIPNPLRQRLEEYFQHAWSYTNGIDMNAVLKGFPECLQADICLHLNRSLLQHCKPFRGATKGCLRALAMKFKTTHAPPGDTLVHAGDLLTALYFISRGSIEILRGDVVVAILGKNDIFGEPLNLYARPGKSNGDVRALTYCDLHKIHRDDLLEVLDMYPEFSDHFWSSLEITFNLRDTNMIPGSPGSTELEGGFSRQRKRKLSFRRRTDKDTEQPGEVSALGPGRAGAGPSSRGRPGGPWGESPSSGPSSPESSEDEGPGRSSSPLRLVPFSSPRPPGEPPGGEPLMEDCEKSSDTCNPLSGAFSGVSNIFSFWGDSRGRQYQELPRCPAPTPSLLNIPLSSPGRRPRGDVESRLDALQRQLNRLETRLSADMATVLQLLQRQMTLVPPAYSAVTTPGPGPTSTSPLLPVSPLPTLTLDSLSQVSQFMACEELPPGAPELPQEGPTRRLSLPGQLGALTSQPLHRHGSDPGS

For `CCN(CC)c1ccc(C(NC(=O)C(C)C)c2ccc3cccnc3c2O)cc1` (stereo not given), which “fractional inhibitory concentration index (FICI)” value (Candida albicans [1]) is on record?
The value was 0.127.

What about the MIC (Candida albicans [2]) of the same molecule?
Its MIC is 0.016 µg/mL.

And the “growth inhibition (GI)” value (Candida albicans [3])?
The value was “inactive”.

What about the “fractional inhibitory concentration index (FICI)” value (Candida albicans [4]) of the same molecule?
Its value is 0.064.

And the “fractional inhibitory concentration index (FICI)” value (Candida albicans [5])?
The value was 0.039.

What about the bioavailability [6] of the same molecule?
The bioavailability was 5.7%.

What about the inhibition at 8 µg/mL (Candida albicans [7]) of the same molecule?
The inhibition at 8 µg/mL was 16.5%.

What about the MIC (Candida albicans [8]) of the same molecule?
Its MIC is 0.016 µg/mL.

What about the MIC (Candida albicans [9]) of the same molecule?
The MIC was 1 µg/mL.

And the MIC (Candida albicans [10])?
Its MIC is 0.125 µg/mL.

And the MIC (Candida albicans [11])?
Its MIC is 8 ng/mL.

And the MIC (Candida albicans [12])?
Its MIC is 0.031 µg/mL.

What about the MIC (Candida albicans [13]) of the same molecule?
Its MIC is 8 ng/mL.

What about the MIC (Candida albicans [14]) of the same molecule?
The MIC was 0.031 µg/mL.

And the MIC (Candida albicans [15])?
The MIC was 0.031 µg/mL.

And the “fractional inhibitory concentration index (FICI)” value (Candida albicans [16])?
The value was 0.063.

And the MIC (Candida albicans [17])?
Its MIC is 0.031 µg/mL.

What about the “fractional inhibitory concentration index (FICI)” value (Candida albicans [18]) of the same molecule?
The value was 0.127.

What about the MIC (Candida albicans [19]) of the same molecule?
Its MIC is 1 µg/mL.

What about the INH [20] of the same molecule?
Its INH is greater than 50 µM.

And the Survival [21]?
Its Survival is 20%.

And the inhibition (Candida albicans [22])?
Its inhibition is “Active”.

What about the “fractional inhibitory concentration index (FICI)” value (Candida albicans [23]) of the same molecule?
Its value is 0.047.

What about the MIC (Candida albicans [24]) of the same molecule?
Its MIC is 0.031 µg/mL.

What about the MIC (Candida albicans [25]) of the same molecule?
The MIC was 0.016 µg/mL.

And the MIC (Candida albicans [26])?
The MIC was 0.25 µg/mL.

What about the MIC (Candida albicans [27]) of the same molecule?
Its MIC is 0.5 µg/mL.

What about the MIC (Candida albicans [28]) of the same molecule?
The MIC was 0.063 µg/mL.

And the “fractional inhibitory concentration index (FICI)” value (Candida albicans [29])?
Its value is 0.035.

And the MIC (Candida albicans [30])?
The MIC was 0.5 µg/mL.

What about the MIC (Candida albicans [31]) of the same molecule?
Its MIC is 8 ng/mL.

And the “fractional inhibitory concentration index (FICI)” value (Candida albicans [32])?
Its value is 0.032.

And the AUC(0-inf) [33]?
The AUC(0-inf) was 1110 ng·h/mL.

And the MIC (Candida albicans [34])?
The MIC was 0.031 µg/mL.

And the Tmax [35]?
Its Tmax is 15 min.

What about the MIC (Candida albicans [36]) of the same molecule?
The MIC was 128 µg/mL.

And the AUC(0-inf) [37]?
The AUC(0-inf) was 158 ng·h/mL.

What about the “fractional inhibitory concentration index (FICI)” value (Candida albicans [38]) of the same molecule?
The value was 0.133.

What does the source list for `OC(Cn1cncn1)(Cn1cncn1)c1ccc(F)cc1F` [FLUCONAZOLE]?
Activity (Candida albicans [39]): 5.66 log10CFU/ml; inhibition (Candida albicans [40]): Dose-Dependent Effect
